“And” between values parts separate entries of the source, which are not always exact repeats. Equal values may be shown once.

These results are taken from article PMC9437101, “Curcumin-based-fluorescent probes targeting ALDH1A3 as a promising tool for glioblastoma precision surgery and early diagnosis” (Communications Biology, 2022).

One series addresses T1, ALDH1A1 (Homo sapiens, UniProt P00352).
T1 construct: E. coli BL21 (DE3) were transformed with the full-length expression vector of each isoform; His-tag; made in house; host or cells: E. coli BL21 (DE3)
T1 sequence (P00352 1-501): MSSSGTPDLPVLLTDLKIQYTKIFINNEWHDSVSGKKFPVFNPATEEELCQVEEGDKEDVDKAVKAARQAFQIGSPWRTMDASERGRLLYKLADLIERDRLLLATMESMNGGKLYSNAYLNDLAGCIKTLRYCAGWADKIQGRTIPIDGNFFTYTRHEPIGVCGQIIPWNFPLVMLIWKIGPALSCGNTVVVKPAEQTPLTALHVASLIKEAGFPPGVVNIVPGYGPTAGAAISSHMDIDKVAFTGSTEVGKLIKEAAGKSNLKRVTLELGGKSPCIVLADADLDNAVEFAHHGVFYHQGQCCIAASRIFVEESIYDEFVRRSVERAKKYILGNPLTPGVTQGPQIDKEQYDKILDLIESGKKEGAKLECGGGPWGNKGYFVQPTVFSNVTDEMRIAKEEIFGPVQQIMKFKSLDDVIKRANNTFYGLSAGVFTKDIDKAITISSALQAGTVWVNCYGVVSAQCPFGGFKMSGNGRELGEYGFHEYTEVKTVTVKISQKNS
Nature of the series: LC-HRMS analysis of isoenzyme activity in presence of probe. It is filed as biochemical. The conditions noted are these: ALDH1A1, 1 h. As to the method:
(§1) These analyses were carried out by using UPLC-HRMS procedure with Vanquish UPLC system coupled to a Thermo Scientific Q-Exactive Plus, operating in negative electrospray ionization mode. The chromatographic separation was carried out using a Phenomenex Synergi 4 µ Polar-RP 80 A (150 × 2 mm) equipped with a Phenomenex Polar-RP (4 mm × 2 mm) security guard column. The mobile phase consisted of A: acetonitrile 0.1% formic acid and B: 0.1% formic acid. We used a linear elution gradient, starting from 80% of A to 5% A in 3 min, 3 min at 5% A, an equilibration of 4 min for a total run time of 10.00 min, at 300 µl/min flow rate. The autosampler temperature was set at 15 °C, the injection volume was 5 µl and column was maintained at 40 °C. The heated electrospray ionization source was used, with a spray voltage of […], with a capillary temperature of 300 °C, a heater temperature of 350 °C, a sheat gas flow of 45 arbitrary units (AU), an auxiliary gas flow of 10 AU and a sweep gas flow of 0 AU. During the Parallel Reaction Monitoring acquisition in negative ion mode, the instrument operated at 17,500 resolution in presence of the inclusion list (m/z = 596.20384 and m/z = 612.19875 for Probe 10 and Probe 10-COOH respectively; m/z = 534.18819 and m/z = 506.156888 for Probe 11 and Probe 11-COOH respectively) with an automatic gain control target of 2 × 10^5 charges and a maximum injection time of 100 ms. Before injecting the samples, the blanks in the list were analyzed and every biological sample was analyzed in duplicate. The biological samples analyzed were as follow: (1) Enzymatic assay Buffer; (2) Enzymatic assay Buffer + NAD^+; (3) Enzymatic assay Buffer + Probe 10 or Probe 11; (4) Enzymatic assay Buffer + ALDH1A1; (5) Enzymatic assay Buffer + ALDH1A2; (6) Enzymatic assay Buffer + ALDH1A3; (7) Enzymatic assay Buffer + ALDH1A1 + Probe 10 or Probe 11; (8) Enzymatic assay Buffer + ALDH1A2 + Probe 10 or Probe 11; (9) Enzymatic assay Buffer + ALDH1A3 + Probe 10 or Probe 11. All samples were diluted 1:1 with ACN, then 1:100 in ACN-Water 1:1 prior the LC-HRMS analysis.

The target in the next series is T2, ALDH1A2 (Homo sapiens, UniProt O94788).
T2 construct: E. coli BL21 (DE3) were transformed with the full-length expression vector of each isoform; His-tag; made in house; host or cells: E. coli BL21 (DE3)
T2 sequence (O94788 1-518): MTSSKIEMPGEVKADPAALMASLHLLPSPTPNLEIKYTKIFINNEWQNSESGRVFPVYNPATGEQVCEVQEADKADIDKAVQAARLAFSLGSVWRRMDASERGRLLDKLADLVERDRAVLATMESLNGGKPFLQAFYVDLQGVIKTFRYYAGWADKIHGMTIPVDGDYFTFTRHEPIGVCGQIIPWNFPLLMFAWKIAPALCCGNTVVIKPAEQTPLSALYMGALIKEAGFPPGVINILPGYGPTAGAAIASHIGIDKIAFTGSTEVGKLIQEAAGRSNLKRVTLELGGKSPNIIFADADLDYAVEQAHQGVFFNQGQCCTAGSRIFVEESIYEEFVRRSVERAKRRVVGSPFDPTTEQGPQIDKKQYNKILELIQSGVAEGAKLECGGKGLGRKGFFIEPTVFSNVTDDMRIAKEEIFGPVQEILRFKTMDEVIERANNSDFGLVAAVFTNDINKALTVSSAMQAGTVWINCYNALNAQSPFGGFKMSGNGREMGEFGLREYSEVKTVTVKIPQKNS
Described as above. It is filed as biochemical. The conditions noted are these: ALDH1A2, 1 h. How it is done: as §1

The nature of series [1]: LC-HRMS analysis, enzymatic assay buffer + probe without enzyme. The conditions noted are these: 1 h. As to the method:
These analyses were carried out by using UPLC-HRMS procedure with Vanquish UPLC system coupled to a Thermo Scientific Q-Exactive Plus, operating in negative electrospray ionization mode. The chromatographic separation was carried out using a Phenomenex Synergi 4 µ Polar-RP 80 A (150 × 2 mm) equipped with a Phenomenex Polar-RP (4 mm × 2 mm) security guard column. The mobile phase consisted of A: acetonitrile 0.1% formic acid and B: 0.1% formic acid. We used a linear elution gradient, starting from 80% of A to 5% A in 3 min, 3 min at 5% A, an equilibration of 4 min for a total run time of 10.00 min, at 300 µl/min flow rate. The autosampler temperature was set at 15 °C, the injection volume was 5 µl and column was maintained at 40 °C. […] Before injecting the samples, the blanks in the list were analyzed and every biological sample was analyzed in duplicate. The biological samples analyzed were as follow: (1) Enzymatic assay Buffer; (2) Enzymatic assay Buffer + NAD^+; (3) Enzymatic assay Buffer + Probe 10 or Probe 11; (4) Enzymatic assay Buffer + ALDH1A1; (5) Enzymatic assay Buffer + ALDH1A2; (6) Enzymatic assay Buffer + ALDH1A3; (7) Enzymatic assay Buffer + ALDH1A1 + Probe 10 or Probe 11; (8) Enzymatic assay Buffer + ALDH1A2 + Probe 10 or Probe 11; (9) Enzymatic assay Buffer + ALDH1A3 + Probe 10 or Probe 11. […]

Substrate in series [2]: COc1cc(/C=C/C(O)=C/C(=O)/C=C/c2ccc(OCc3cn(CCOc4ccc(C=O)cc4)nn3)c(OC)c2)ccc1O
Nature of the series: KM evaluation, probe as substrate (NADH absorbance 340 nm). It is filed as biochemical, human. The conditions noted are these: other: probe as substrate; pH 8.0; 25.0 °C. As to the method:
The catalytic activity of the ALDH1As isoenzymes in complex with probe 10 was tested on a Tecan Sunrise 96 Multiplate Reader with Greiner Bio-One 96-UV-Transparent Microplates. […] Each reaction mix was preincubated for 10 min at 25 °C before the analysis. The catalytic activity was measured by monitoring the absorbance at 340 nm (εNADH = 6220 M^−1 cm^−1) for 12 h at 25 °C and the inhibitory parameters were calculated by processing the raw data on GraphPad.

Consider `COc1cc(/C=C/C(O)=C/C(=O)/C=C/c2ccc(OCc3cn(CCOc4ccc(C(=O)O)cc4)nn3)c(OC)c2)ccc1O` [Probe 10-COOH], for which the “AREA TIC of Probe 10-COOH formed from Probe 10” value at ALDH1A1 is 26353656 and 30637066 and 18030552 and 17027138; at ALDH1A2 it was 18647884 and 19590595 and 21767211 and 22597746; in series [1], 0.

B1: ALDH1A2 (Homo sapiens) (protein)
chain: T2 sequence (O94788 1-518)
notes: E. coli BL21 (DE3) were transformed with the full-length expression vector of each isoform; His-tag; made in house; host or cells: E. coli BL21 (DE3)
As a reminder, the Km is the concentration of substrate that gives half-maximal velocity. For the molecule B1, in series [2], the Km was 220.0 µM.

B2: ALDH1A1 (Homo sapiens) (protein)
chain: T1 sequence (P00352 1-501)
notes: as for B1
B2: the Km in series [2] was 255.2 µM.
